Test results: US20100204203A1, “Chemical Compounds 637: Pyridopyrimidinediones as PDE4 Inhibitors” (priority 2007, published 2010)

Target: recombinant Human Phosphodiesterase B2 (PDE4B2) (Homo sapiens, UniProt Q07343)
Assay: Human Phosphodiesterase B2 Radiometric Assay (yttrium silicate SPA beads, [3H]cyclic AMP)
Assay type: biochemical
Conditions: recombinant human PDE4B2, radiometric SPA assay, 8 nM [3H]cyclic AMP; read-out: PDE4B2 pIC50 (converted)
Procedure, shortened: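 Compounds were preincubated 30 min at 30 °C with 0.1 mg/mL PDE4B2 in 50 mM HEPES pH 7.5, 8.3 mM MgCl2, 1.7 mM EGTA, 0.01% Brij 35. Then 8 nM [3H]cAMP was added for 20 min, stopped with yttrium silicate SPA beads plus 18 mM ZnSO4 capturing product 5′AMP; pIC50 by curve fitting.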

recombinant Human Phosphodiesterase B2 (PDE4B2), sequence (Q07343 1-564 isoform Q07343-2): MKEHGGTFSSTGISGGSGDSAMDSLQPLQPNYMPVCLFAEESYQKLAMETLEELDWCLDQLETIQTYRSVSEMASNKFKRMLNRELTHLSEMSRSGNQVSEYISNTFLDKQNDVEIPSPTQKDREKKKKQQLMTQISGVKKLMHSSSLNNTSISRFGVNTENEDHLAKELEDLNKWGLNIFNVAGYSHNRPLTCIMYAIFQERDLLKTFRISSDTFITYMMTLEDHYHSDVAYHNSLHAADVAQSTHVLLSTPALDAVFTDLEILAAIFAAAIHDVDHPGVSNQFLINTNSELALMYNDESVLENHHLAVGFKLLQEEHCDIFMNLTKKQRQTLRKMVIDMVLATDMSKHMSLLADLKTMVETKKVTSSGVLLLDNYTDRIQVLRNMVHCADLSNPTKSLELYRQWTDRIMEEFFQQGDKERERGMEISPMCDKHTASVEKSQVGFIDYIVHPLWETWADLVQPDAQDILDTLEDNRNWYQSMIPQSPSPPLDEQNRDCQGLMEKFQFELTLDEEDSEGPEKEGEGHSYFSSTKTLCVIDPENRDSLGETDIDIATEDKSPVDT

SMILES | IC50 [pM]
CCOCCNCc1ccc(-c2cccc(-n3c(=O)n([C@H]4CC[C@@H](NC(=O)c5cn6c(n5)CCCC6)CC4)c(=O)c4cc(F)cnc43)c2)cc1 [Example 123, N-{cis-4-[1-(4′-{[(2-ethoxyethyl)amino]methyl}biphenyl-3-yl)-6-fluoro-2,4-dioxo-1,4-dihydropyrido[2,3-d]pyrimidin-3(2H)-yl]cyclohexyl}-5,6,7,8-tetrahydroimidazo[1,2-a]pyridine-2-carboxamide] | 39.8
C[C@@H]1CN(Cc2ccc(-c3cccc(-n4c(=O)n([C@H]5CC[C@@H](NC(=O)C6(N(C)C)CC6)CC5)c(=O)c5cc(F)cnc54)c3)cc2)C[C@H](C)O1 [Example 209, 1-(dimethylamino)-N-{cis-4-[1-(4′-{[(2R,6S)-2,6-dimethylmorpholin-4-yl]methyl}biphenyl-3-yl)-6-fluoro-2,4-dioxo-1,4-dihydropyrido[2,3-d]pyrimidin-3(2H)-yl]cyclohexyl} cyclopropanecarboxamide] | 6.31
O=C(N[C@H]1CC[C@@H](n2c(=O)c3cc(F)cnc3n(-c3ccc(Cc4ccccc4)cc3)c2=O)CC1)c1cn2cc(F)ccc2n1 [Example 37, N-{cis-4-[1-(4-benzylphenyl)-6-fluoro-2,4-dioxo-1,4-dihydropyrido[2,3-d]pyrimidin-3(2H)-yl]cyclohexyl}-6-fluoroimidazo[1,2-a]pyridine-2-carboxamide] | 6310
CN1CCN(CCc2ccc(-c3cccc(-n4c(=O)n([C@H]5CC[C@@H](NC(=O)c6cn7cc(F)ccc7n6)CC5)c(=O)c5cc(F)cnc54)c3)cc2)CC1 [Example 100, 6-fluoro-N-{cis-4-[6-fluoro-1-{4′-[2-(4-methylpiperazin-1-yl)ethyl]biphenyl-3-yl}-2,4-dioxo-1,4-dihydropyrido[2,3-d]pyrimidin-3(2H)-yl]cyclohexyl}imidazo[1,2-a]pyridine-2-carboxamide] | 7.94
O=C(N[C@H]1CC[C@@H](n2c(=O)c3cc(F)cnc3n(-c3cccc(-c4ccc(CCN5CCNCC5)cc4)c3)c2=O)CC1)c1cn2cc(F)ccc2n1 [Example 102, 6-fluoro-N-{cis-4-[6-fluoro-2,4-dioxo-1-[4′-(2-piperazin-1-ylethyl)biphenyl-3-yl]-1,4-dihydropyrido[2,3-d]pyrimidin-3 (2H)-yl]cyclohexyl}imidazo[1,2-c]pyridine-2-carboxamide] | 7.94
Cc1cc(C(=O)N[C@H]2CC[C@@H](n3c(=O)c4cc(F)cnc4n(-c4cccc(-c5ccc(CN6CCC(CO)CC6)cc5)c4)c3=O)CC2)nn1C [Example 116, N-{cis-4-[6-fluoro-1-(4′-{[4-(hydroxymethyl)piperidin-1-yl]methyl}biphenyl-3-yl)-2,4-dioxo-1,4-dihydropyrido[2,3-d]pyrimidin-3(2H)-yl]cyclohexyl}-1,5-dimethyl-1H-pyrazole-3-carboxamide] | 50.1
Cc1cc(C(=O)N[C@H]2CC[C@@H](n3c(=O)c4cc(F)cnc4n(-c4cccc(-c5ccc(CN6CCN(C7CCCC7)CC6)cc5)c4)c3=O)CC2)nn1C [Example 215, N-{cis-4-[1-{4′-[(4-cyclopentylpiperazin-1-yl)methyl]biphenyl-3-yl}-6-fluoro-2,4-dioxo-1,4-dihydropyrido[2,3-d]pyrimidin-3(2H)-yl]cyclohexyl}-1,5-dimethyl-1H-pyrazole-3-carboxamide] | 31.6
O=C(N[C@H]1CC[C@@H](n2c(=O)c3cc(F)cnc3n(-c3cccc(-c4ccc(CN5CCNCC5)cc4)c3)c2=O)CC1)c1cn2cc(F)ccc2n1 [Example 54, 6-fluoro-N-{cis-4-[6-fluoro-2,4-dioxo-1-[4′-(piperazin-1-ylmethyl)biphenyl-3-yl]-1,4-dihydropyrido[2,3-d]pyrimidin-3(2H)-yl]cyclohexyl}imidazo[1,2-a]pyridine-2-carboxamide] | 15.8
Cc1cc(C(=O)N[C@H]2CC[C@@H](n3c(=O)c4cc(F)cnc4n(-c4cccc(-c5ccc(CN(C)CCN(C)C)cc5)c4)c3=O)CC2)nn1C [Example 113, N-{cis-4-[1-(4′-{[[2-(dimethylamino)ethyl](methyl)amino]methyl}biphenyl-3-yl)-6-fluoro-2,4-dioxo-1,4-dihydropyrido[2,3-d]pyrimidin-3(2H)-yl]cyclohexyl}-1,5-dimethyl-1H-pyrazole-3-carboxamide] | 12.6
CSc1ccccc1-c1cccc(-n2c(=O)n([C@H]3CC[C@@H](NC(=O)c4cn5cc(F)ccc5n4)CC3)c(=O)c3cc(F)cnc32)c1 [Example 17, 6-fluoro-N-{cis-4-[6-fluoro-1-[2′-(methylthio)biphenyl-3-yl]-2,4-dioxo-1,4-dihydropyrido[2,3-d]pyrimidin-3(2H)-yl]cyclohexyl}imidazo[1,2-a]pyridine-2-carboxamide.] | 7.94
CC(C)N(CCO)Cc1ccc(-c2cccc(-n3c(=O)n([C@H]4CC[C@@H](NC(=O)c5cn6c(n5)CCCC6)CC4)c(=O)c4cc(F)cnc43)c2)cc1 [Example 121, N-{cis-4-[6-fluoro-1-(4′-{[(2-hydroxyethyl)(isopropyl)amino]methyl}biphenyl-3-yl)-2,4-dioxo-1,4-dihydropyrido[2,3-d]pyrimidin-3(2H)-yl]cyclohexyl}-5,6,7,8-tetrahydroimidazo[1,2-a]pyridine-2-carboxamide] | 158

Next, values leading:

IC50 [pM] | SMILES
39.8 | O=c1c2cc(F)cnc2n(-c2cccc(-c3ccc(CN4CCCOCC4)cc3)c2)c(=O)n1[C@H]1CC[C@@H](N(Cc2cn3cc(F)ccc3n2)Cc2cn3cc(F)ccc3n2)CC1 [Example 339, 3-(cis-4-{bis[(6-fluoroimidazo[1,2-a]pyridin-2-yl)methyl]amino}cyclohexyl)-6-fluoro-1-[4′-(1,4-oxazepan-4-ylmethyl)biphenyl-3-yl]pyrido[2,3-d]pyrimidine-2,4(1H,3H)-dione]
1260 | O=c1c2cc(F)cnc2n(-c2cccc(-c3ccc(O)cc3CN3CCOCC3)c2)c(=O)n1[C@H]1CC[C@@H](NCCCc2ccccc2)CC1 [Example 248, 6-Fluoro-1-[4′-hydroxy-2′-(morpholin-4-ylmethyl)biphenyl-3-yl]-3-{cis-4-[(3-phenylpropyl)amino]cyclohexyl}pyrido[2,3-d]pyrimidine-2,4(1H,3H)-dione]
501 | C[C@@H](CO)N(C)Cc1cc(O)ccc1-c1cccc(-n2c(=O)n([C@H]3CC[C@@H](NCc4cn5cc(F)ccc5n4)CC3)c(=O)c3cc(F)cnc32)c1 [Example 324, 6-fluoro-3-(cis-4-{[(6-fluoroimidazo[1,2-a]pyridin-2-yl)methyl]amino}cyclohexyl)-1-(4′-hydroxy-2′-{[[(1S)-2-hydroxy-1-methylethyl](methyl)amino]methyl}biphenyl-3-yl)pyrido[2,3-d]pyrimidine-2,4(1H,3H)-dione]
15.8 | Cc1cccc(C(=O)N[C@H]2CC[C@@H](n3c(=O)c4cc(F)cnc4n(-c4cccc(-c5ccc(CN6CCN(C7CCCC7)CC6)cc5)c4)c3=O)CC2)n1 [Example 294, N-{cis-4-[1-{4′-[(4-cyclopentylpiperazin-1-yl)methyl]biphenyl-3-yl}-6-fluoro-2,4-dioxo-1,4-dihydropyrido[2,3-d]pyrimidin-3(2H)-yl]cyclohexyl}-6-methylpyridine-2-carboxamide]
20 | CN1CCN(Cc2ccc(-c3cccc(-n4c(=O)n([C@H]5CC[C@@H](NC(=O)c6cn7cc(F)ccc7n6)CC5)c(=O)c5cc(F)cnc54)c3)cc2)CC1 [Example 269, 6-Fluoro-N-{cis-4-[6-fluoro-1-{4′-[(4-methylpiperazin-1-yl)methyl]biphenyl-3-yl}-2,4-dioxo-1,4-dihydropyrido[2,3-d]pyrimidin-3(2H)-yl]cyclohexyl}imidazo[1,2-a]pyridine-2-carboxamide]
631 | CC(C)N1CCN(Cc2ccc(-c3cccc(-n4c(=O)n([C@H]5CC[C@@H](NCc6cccc(C#N)c6)CC5)c(=O)c5cc(F)cnc54)c3)cc2)CC1 [Example 259, 3-[({cis-4-[6-fluoro-1-{4′-[(4-isopropylpiperazin-1-yl)methyl]biphenyl-3-yl}-2,4-dioxo-1,4-dihydropyrido[2,3-d]pyrimidin-3(2H)-yl]cyclohexyl}amino)methyl] benzonitrile]
126 | CN(CCO)Cc1cc(O)ccc1-c1cccc(-n2c(=O)n([C@H]3CC[C@@H](NCc4cn5cc(F)ccc5n4)CC3)c(=O)c3cc(F)cnc32)c1 [Example 329, 6-fluoro-3-(cis-4-{[(6-fluoroimidazo[1,2-a]pyridin-2-yl)methyl]amino}cyclohexyl)-1-(4′-hydroxy-2′-{[(2-hydroxyethyl) (methyl)amino]methyl}biphenyl-3-yl)pyrido[2,3-d]pyrimidine-2,4(1H,3H)-dione]
50.1 | CC(C)N1CCN(Cc2ccc(-c3cccc(-n4c(=O)n([C@H]5CC[C@@H](NC(=O)C6CC6)CC5)c(=O)c5cc(F)cnc54)c3)cc2)CC1 [Example 233, N-{cis-4-[6-fluoro-1-{4′-[(4-isopropylpiperazin-1-yl)methyl]biphenyl-3-yl}-2,4-dioxo-1,4-di-hydropyrido[2,3-d]pyrimidin-3(2H)-yl]cyclohexyl}cyclo-propanecarboxamide]
631 | O=c1c2cc(F)cnc2n(-c2cccc(-c3ccc(O)cc3CN3CCCOCC3)c2)c(=O)n1[C@H]1CC[C@@H](NCc2cccn3ccnc23)CC1 [Example 372, 6-fluoro-1-[4′-hydroxy-2′-(1,4-oxazepan-4-ylmethyl)biphenyl-3-yl]-3-{cis-4-[(imidazo[1,2-a]pyridin-8-ylmethyl)amino]cyclohexyl}pyrido[2,3-d]pyrimidine-2,4(1H,3H)-dione]
398 | O=c1c2cc(F)cnc2n(-c2cccc(-c3ccc(O)cc3CN3CC[C@H](O)C3)c2)c(=O)n1[C@H]1CC[C@@H](NCc2cn3cc(F)ccc3n2)CC1 [Example 331, 6-fluoro-3-(cis-4-{[(6-fluoroimidazo[1,2-a]pyridin-2-yl)methyl]amino}cyclohexyl)-1-(4′-hydroxy-2′-{[(3S)-3-hydroxypyrrolidin-1-yl]methyl}biphenyl-3-yl)pyrido[2,3-d]pyrimidine-2,4(1H,3H)-dione]
